Source: US20200123127A1, “REMOVAL OF SENESCENCE-ASSOCIATED MACROPHAGES” (EVERON BIOSCIENCES, INC., priority 2016, published 2020)
Read-outs that look alike come from different tables or passages of the source.

Legend:
[1] = system: human neonatal dermal fibroblasts (NDF); assay: Resazurin viability assay, senescent vs proliferating/quiescent human neonatal dermal fibroblasts; assay type: cell-based; conditions: for IC50: Homo sapiens, Fibroblast
[2] = system: mLF primary lung fibroblasts; assay: Anti-senescent cytotoxicity, senescent vs proliferating mLF; assay type: cell-based, Mouse; conditions: for IC50: Mus musculus, Primary lung fibroblast
Procedure: For generation senescent human neonatal dermal fibroblasts (NDFs) and adult rat dermal fibroblasts (RDFs), cells are treated at ˜10 ug/ml bleomycin for 3 days (for bleomycin-induced senescence) or irradiated once at 20 Gy using a gamma irradiator (Cs source), followed by at least 7 day recovery in fresh medium for induction of senescence. Senescent and non-senescent (proliferating) cells for each cell line are plated into 384-w plate, followed by 72 hour exposure to a dose titration of compounds. Viability measurements are estimated using the resazurin viability assay. Using GraphPad Prism 5, the IC50 values are calculated from the non-linear regression of log-transformed compound concentrations versus dose-response normalized to background and non-treated controls.
Anti-senescent selectivity is observed in primary human dermal fibroblasts (NDFs) induced to senescence via genotoxic stress, oxidative stress and replicative stress. In addition, human, rat and mouse cells senesced via bleomycin and irradiation all show sensitivity towards A1.1 treatment compared to A1.1-treated naïve cell controls.

[3] = system: A549 lung adenocarcinoma cells; assay: Anti-senescent cytotoxicity, senescent vs proliferating A549; assay type: cell-based, Human; conditions: for IC50: Homo sapiens
[4] = system: B16 cells; assay: In vitro growth and viability of B16 cells (resazurin); assay type: cell-based; conditions: 72 hour exposure, up to 20 uM
Excerpt: FIG. 4. Efficacy of A1.1 analogs in the senescence-enhanced B16 metastasis model. (A) Quantification of metastatic nodules by H&E morphometric analysis, and the resulting reduction in tumor burden (%) compared to vehicle control. (B) Quantitation morphometric analysis of lungs excised from irradiated mice treated with analogs of A1.1 post-inoculation of B16 cell intravenously, along with quantitation of morphometric analysis, are provided. (C) In vitro testing of A1.1 and analogs against the growth and viability of B16 cells, as assessed by the resazurin viability assay after 72 hour exposure to compounds compared to non-treated controls.
The role of senescent cells in the promotion of metastatic potential of cancer cells has also been described [Patent WO 2013090645 A1; Campisi, J. (2015). Cancer and Aging: Rival Demons]. […] To test the efficacy of A1.1, irradiated (11 Gy followed by bone-marrow transplantation) and non-irradiated C57BL/6 mice received B16 melanoma cells via tail vein injection were subsequently (72 hours later) administered A1.1 (20 mg/kg) intraperitoneally once a day for 5 consecutive days.
Synthesized analogs were also tested in vivo, to assess whether optimized structures are capable of showing activity against senescence-mediated B16 lung metastasis in irradiated mice (FIG. 4B). […]

[5] = system: AdMSC primary adipose-derived mesenchymal stromal cells; assay: Anti-senescent cytotoxicity, senescent vs proliferating AdMSC; assay type: cell-based, Human; conditions: for IC50: Homo sapiens

CCOC(=O)c1sc(SCc2ccccc2)c2c1CC(c1ccc(OC)cc1)C/C2=N\O (stereo not shown) [Example A1.1]
sensitivity of senescent vs acutely damaged or proliferating NDF cells ([1]; 1.875-30 μM, 72 hours, bleomycin or 15 Gy senescent vs 4 Gy acutely damaged): greater sensitivity
IC50 ([1]; NDF proliferating, read-out: Activity against Proliferating Cells (IC50; uM)): 18.7 µM
IC50 ([1]; NDF, senescence induction: Bleomycin, read-out: Activity against Senescent Cells (IC50; uM)): 3.5 µM
IC50 ([1]; NDF, senescence induction: Busulfan, read-out: Activity against Senescent Cells (IC50; uM)): 3.6 µM
IC50 ([1]; NDF, senescence induction: Doxorubicin, read-out: Activity against Senescent Cells (IC50; uM)): 5.1 µM
IC50 ([1]; NDF, senescence induction: Etoposide, read-out: Activity against Senescent Cells (IC50; uM)): 3.8 µM
IC50 ([1]; NDF, senescence induction: H2O2, read-out: Activity against Senescent Cells (IC50; uM)): 3.2 µM
IC50 ([1]; NDF, senescence induction: H-Ras, read-out: Activity against Senescent Cells (IC50; uM)): 8.9 µM
IC50 ([1]; NDF, senescence induction: Replicative (late passage), read-out: Activity against Senescent Cells (IC50; uM)): 10.5 µM
IC50 ([1]; light or radiation study, NDF, senescence induction: Irradiation, read-out: Activity against Senescent Cells (IC50; uM)): 6.5 µM
Selectivity (Prolif/Sen) ([1]; NDF, Busulfan): 5.3
Selectivity (Prolif/Sen) ([1]; NDF, Doxorubicin): 3.7
Selectivity (Prolif/Sen) ([1]; NDF, Etoposide): 4.9
Selectivity (Prolif/Sen) ([1]; NDF, H2O2): 5.9
Selectivity (Prolif/Sen) ([1]; NDF, H-Ras): 2.1
Selectivity (Prolif/Sen) ([1]; NDF, Replicative (late passage)): 1.8
number of viable senescent NDF cells ([1]; concentrations as low as 2.5 μM, doxorubicin-, bleomycin- and gamma-irradiation-induced senescence, 72 hours): significantly reduced
IC50 ([2]; light or radiation study, mLF, senescence induction: Irradiation, read-out: Activity against Senescent Cells (IC50; uM)): 4 µM
IC50 ([2]; mLF proliferating, read-out: Activity against Proliferating Cells (IC50; uM)): 10.6 µM
IC50 ([2]; mLF, senescence induction: Bleomycin, read-out: Activity against Senescent Cells (IC50; uM)): 7.1 µM
Selectivity (Prolif/Sen) ([2]; mLF, Bleomycin): 1.5
Selectivity (Prolif/Sen) ([2]; mLF, Irradiation): 2.7
Selectivity (Prolif/Sen) ([3]; A549, Bleomycin): 3.7
Selectivity (Prolif/Sen) ([3]; A549, Irradiation): 4.5
IC50 ([3]; light or radiation study, A549, senescence induction: Irradiation, read-out: Activity against Senescent Cells (IC50; uM)): 3.7 µM
IC50 ([3]; A549, senescence induction: Bleomycin, read-out: Activity against Senescent Cells (IC50; uM)): 4.5 µM
IC50 ([3]; A549 proliferating, read-out: Activity against Proliferating Cells (IC50; uM)): 16.5 µM
B16 growth in vitro [4]: did not inhibit
Selectivity (Prolif/Sen) ([5]; AdMSC, Bleomycin): 2.3
IC50 ([5]; AdMSC proliferating, read-out: Activity against Proliferating Cells (IC50; uM)): 12.6 µM
IC50 ([5]; AdMSC, senescence induction: Bleomycin, read-out: Activity against Senescent Cells (IC50; uM)): 5.6 µM
